Publication PMC9653339, “Revisiting the anticancer properties of phosphane(9-ribosylpurine-6-thiolato)gold(I) complexes and their 9H-purine precursors” (Journal of Biological Inorganic Chemistry, 2022)

Assays:
[1] = test system: HeLa cervix carcinoma cells; experiment: MTT cell viability assay, HeLa; assay type: cell-based, human; conditions: 72 h
Description: (§1) All complexes stable in solution were investigated for their anti-proliferative effect on nine human cancer cell lines, using the MTT-based cell viability assay. Cells were seeded in 96-well microtiter plates (Sarstedt) with a cell density of 0.05 × 10^6 cells per ml and 100 µL per well and incubated for 24 h. A dilution series of test compounds was added to the wells, ranging in twelve steps from 100 µM to 5 nM. As a control, equal amounts of DMSO were added. Treated cells were further incubated for 72 h. Then, 12.5 µL per well of MTT solution (0.05% in phosphate-buffered saline (PBS)) was added, followed by another 2 h of incubation. The plates were centrifuged, the medium was discarded and 25 µL per well of SDS solution in DMSO (10% SDS, 0.6% AcOH in DMSO) was added to dissolve the formazan. The plates were incubated for a further hour. Absorbances at 570 nm and 630 nm were measured using a plate reader (Tecan). Background absorbance (630 nm) was subtracted from the formazan signal (570 nm). The resulting absorbance was directly proportional to the amount of viable cells. The control was normalized to 100% viable cells and viability of cells treated with test compounds was calculated accordingly. IC50 values were calculated based on a sigmoidal fit model using GraphPad Prism. Means and SD were calculated from at least four independent experiments.

[2] = test system: MCF-7 mamma carcinoma cells; experiment: MTT cell viability assay, MCF-7; assay type: cell-based, human; conditions: 72 h, read-out: IC50 MCF7
Description: as §1

[3] = test system: EA.hy926 endothelial hybrid cells; experiment: MTT cell viability assay, EA.hy926; assay type: cell-based, human; conditions: 72 h
Description: as §1

[4] = test system: HCT-116^wt colon carcinoma cells; experiment: MTT cell viability assay, HCT-116wt; assay type: cell-based, human; conditions: 72 h
Description: as §1, with “Cells” for “All complexes stable in solution were investigated for their anti-proliferative effect on nine human cancer cell lines, using the MTT-based cell viability assay. Cells”

[5] = test system: human adult dermal fibroblasts HDFa; experiment: MTT cell viability assay, HDFa; assay type: cell-based; conditions: 72 h, non-malignant fibroblasts
Description: as §1

[6] = test system: HCT-116^p53−/− (p53 knockout mutant) colon carcinoma cells; experiment: MTT cell viability assay, HCT-116 p53-/-; assay type: cell-based, human; conditions: 72 h
Description: as §1, with “Cells” for “All complexes stable in solution were investigated for their anti-proliferative effect on nine human cancer cell lines, using the MTT-based cell viability assay. Cells”

EA.hy926 cells = experiment: Tube formation assay; assay type: cell-based, human; conditions: 5 µM (CA-4 0.01 µM)
Description: EA.hy926 cells were cultured overnight in endothelial medium (37 °C, 95% humidity, 5% CO2) instead of DMEM. In addition, Matrigel was thawed on ice in the refrigerator. Pipette tips and 96-well plates were stored at − 20 °C overnight. The next day, 30 µL of Matrigel was added to each well bubble-free and the well plate was incubated for approximately 45 min (37 °C, 95% humidity, 5% CO2). Subsequently, 100 µL of cell suspension was added to each well at a concentration of 0.4–0.5 × 10^6 cells/mL onto the Matrigel-treated wells and the substances were added in tenfold pre-dilution. This was followed by incubation for approximately 6 h, until tubes formed in the negative control with DMSO. At this point, documentation under the microscope took place.

518A2 melanoma cells = experiment: MTT cell viability assay, 518A2; assay type: cell-based, human; conditions: 72 h
Description: as §1

[7] = test system: mdr KB-V1^Vbl cervix carcinoma cells; experiment: MTT cell viability assay, KB-V1 (with and without verapamil); assay type: cell-based, human; conditions: 72 h, without verapamil
Description: as §1

[8] = test system: HT-29 colon carcinoma cells; experiment: MTT cell viability assay, HT-29; assay type: cell-based, human; conditions: 72 h
Description: as §1

[9] = test system: mdr MCF-7^Topo mamma carcinoma cells; experiment: MTT cell viability assay, MCF-7Topo; assay type: cell-based, human; conditions: 72 h, read-out: IC50 MCF7^Topo
Description: as §1

U-87 glioblastoma cells = experiment: MTT cell viability assay, U-87; assay type: cell-based, human; conditions: 72 h
Description: as §1

[10] = Stability by NMR in DMSO-d6 + 5% D2O; assay type: physicochemical; conditions: for Stability (31P NMR): DMSO-d6 with additional D2O, three days
Description: In a further corroboration of the complex stability, the similarity of the chalcogens sulfur and selenium was exploited. The selenolato complex 10 was synthesized and examined for its stability under identical conditions. Since ^77Se is a 1/2 spin nucleus with roughly 8% natural abundance, its compounds can be investigated directly. Depending on whether a break in the Se–Au or the Au–PR3 bond would occur, the shift would change by several hundred ppm and serve as unequivocal evidence. […] In addition, we investigated the stability of complexes 1 and 5 as representatives of the series of purines and purine nucleosides, respectively, in cell culture medium by UV/Vis spectroscopy.

[11] = test system: caspase 3/7 in 518A2 melanoma cells; experiment: Caspase 3/7 activation; assay type: cell-based, human; conditions: 518A2 cells, 10 µM, 6 h
Description: The assay was conducted, following manufacturer’s instructions using the Cell Meter Caspase 3/7 activity apoptosis assay kit (AAT Bioquest). Briefly, 518A2 melanoma cells were seeded in 96-well flat black microtiter plates with a density of 0.22 × 10^6 cells per mL and 90 µL per well. After 24 h of incubation, 10 µL per well of tenfold diluted test compounds was added, and the cells were incubated for a further 6 h. Subsequently, 100 µL per well of Caspase 3/7 substrate working solution was added and incubated for 1 h in the dark at room temperature. The fluorescence was measured using a micro-plate reader (Tecan) at ex/em = 490/525 nm.

SMILES	IC50 [1]	IC50 [2]	IC50 [3]	IC50 [4]	IC50 [5]	IC50 [6]	Inhibition of tube formation (EA.hy926 cells)	IC50 (518A2 melanoma cells)	IC50 [7]	IC50 [8]	IC50 [9]	IC50 (U-87 glioblastoma cells)	Stability (77Se NMR) ([10]; DMSO-d6 + 5% D2O, identical conditions)	Stability (31P NMR) [10]	Caspase 3/7 activity [11]
CSc1ncnc2c1ncn2[C@@H]1O[C@H](CO)[C@@H](O)[C@H]1O [6-MMR, 6-methylmercaptopurine riboside, reference compound]	0.0056 ± 0.0003 µM	0.09 ± 0.003 µM	0.11 ± 0.001 µM	0.1 ± 0.008 µM	5.8 ± 0.46 µM	0.05 ± 0.001 µM	inhibitory effects	1.4 ± 0.12 µM	–	–	–	–	–	–	–
c1ccc([PH]([Au][S]c2ncnc3[nH]cnc23)(c2ccccc2)c2ccccc2)cc1 [Complex 1, (1,7-Dihydro-6H-purine-6-thiolato) (triphenylphosphane) gold(I)]	2.6 ± 0.04 µM	13 ± 1.12 µM	2.9 ± 0.7 µM	4.9 ± 1 µM	–	1.7 ± 0.3 µM	–	8 ± 0.71 µM	1.9 ± 0.1 µM	8 ± 0.73 µM	6.6 ± 0.65 µM	0.91 ± 0.09 µM	–	–	–
CC[PH](CC)(CC)[Au][S]c1nc([S][Au][PH](CC)(CC)CC)c2nc[nH]c2n1 [Complex 9, (1,7-Dihydro-6H-purine-2,6-bisthiolato) (triethylphosphane) gold(I)]	17.6 ± 0.8 µM	–	–	11.2 ± 0.78 µM	–	3.7 ± 0.35 µM	–	13.4 ± 1.2 µM	–	11.1 ± 0.32 µM	–	–	–	–	–
CC[PH](CC)(CC)[Au][S]c1nc(N)nc2c1ncn2[C@@H]1O[C@H](CO)[C@@H](O)[C@H]1O [Complex 8, (2-Amino-1,7-dihydro-6H-purine-9-β-D-ribofuranosyl-6-thiolato) (triethylphosphane) gold(I)]	2.4 ± 0.21 µM	10 ± 0.83 µM	1.7 ± 0.14 µM	5.5 ± 0.3 µM	7 ± 0.7 µM	1.8 ± 0.06 µM	–	3.4 ± 0.33 µM	0.7 ± 0.07 µM	4.5 ± 0.34 µM	3.6 ± 0.34 µM	1 ± 0.03 µM	–	–	–
CC[PH](CC)(CC)[Au][Se]c1ncnc2[nH]cnc12 [Complex 10, (1,7-Dihydro-6H-purine-6-selenolato) (triethylphosphane) gold(I)]	–	–	–	–	–	–	–	–	–	–	–	–	no change in the shift of the ^77Se NMR signal	–	–
CC[PH](CC)(CC)[Au][S]c1nc(N)nc2[nH]cnc12 [Complex 4, (2-Amino-1,7-dihydro-6H-purine-6-thiolato) (triethylphosphane) gold(I)]	15 ± 4.1 µM	21 ± 3.4 µM	1.1 ± 0.08 µM	25 ± 3.1 µM	–	11 ± 0.5 µM	–	16 ± 0.91 µM	12 ± 1 µM	5.8 ± 1.7 µM	4.9 ± 0.43 µM	7 ± 0.66 µM	–	did not change noticeably	–
COc1ccc(/C=C\c2cc(OC)c(OC)c(OC)c2)cc1O [CA-4, combretastatin A-4]	–	–	–	–	–	–	Complete inhibition of tube formation	–	–	–	–	–	–	–	–
CC[PH](CC)(CC)[Au][S]c1ncnc2[nH]cnc12 [Complex 3, (1,7-Dihydro-6H-purine-6-thiolato) (triethylphosphane) gold(I)]	6.8 ± 0.62 µM	9.4 ± 0.53 µM	1.5 ± 0.11 µM	6.3 ± 0.3 µM	–	3.6 ± 0.8 µM	–	8.4 ± 0.62 µM	2.5 ± 0.32 µM	6.4 ± 1.4 µM	10 ± 0.26 µM	6.9 ± 0.47 µM	–	–	–
CC[PH](CC)(CC)[Au][S]c1ncnc2c1ncn2[C@@H]1O[C@H](CO)[C@@H](O)[C@H]1O [Complex 7, (1,7-Dihydro-6H-purine-9-β-D-ribofuranosyl-6-thiolato) (triethylphosphane) gold(I)]	0.51 ± 0.05 µM	2.1 ± 0.2 µM	0.43 ± 0.02 µM	1.6 ± 0.2 µM	7 ± 0.62 µM	0.5 ± 0.03 µM	–	3 ± 0.21 µM	0.4 ± 0.04 µM	2.2 ± 0.17 µM	1.2 ± 0.11 µM	1.1 ± 0.11 µM	–	did not change noticeably	even exceeded the effects of the three controls
Nc1nc([S][Au][PH](c2ccccc2)(c2ccccc2)c2ccccc2)c2nc[nH]c2n1 [Complex 2, (2-Amino-1,7-dihydro-6H-purine-6-thiolato) (triphenylphosphane) gold(I)]	0.6 ± 0.05 µM	2.2 ± 0.13 µM	0.5 ± 0.1 µM	0.8 ± 0.01 µM	–	0.58 ± 0.01 µM	–	4.4 ± 0.33 µM	0.3 ± 0.07 µM	4.4 ± 0.32 µM	3.7 ± 0.37 µM	1 ± 0.1 µM	–	–	–
